In patent EP0041891A1, “6-Methyl-4-(1-piperazinyl)-furo(3,2-c)pyridines, process for their preparation and their therapeutic use” (RIOM LABORATOIRES- C.E.R.M. (Société Anonyme), priority 1980, dated 1981):

How the values were obtained:
[1] = system: comportement " muricide " chez le rat LONG-EVANS; test: Antagonism of muricide behaviour in the LONG-EVANS rat (test C); assay type: in vivo; conditions: 5 mg.kg^-1 i.p., 60 min before the mouse is presented; percent decrease versus control group
Experimental: C - Antagonisme du comportement " muricide " chez le rat LONG-EVANS
Les animaux utilisés sont des rats de sexe mâle LONG-EVANS de souche pie-noire, en provenance de l'élevage IFFA CREDO, dont la période d'isolement dans des cages individuelles est supérieure à 6 mois. L'administration des composés (ou du véhicule pour les animaux de groupe de contrôle) est effectuée par voie intrapéritonéale à raison de 5 mg.kg ^1, 60 minutes avant la mise en présence d'une souris avec les rats isolés (n ≥ 8 ) .
Le.comportement classiquement décrit comme " muricide " /VALZELLI L. - Actualités Pharmacologiques, 24, 133-152, (1971)] est positif si le rat tue la souris en un temps inférieur ou égal à 3 minutes.
Les résultats sont exprimés en pourcentage de diminution par rapport à celui du groupe des animaux de contrôle.

[2] = system: stéréotypies induites par l'amphétamine; test: Potentiation of amphetamine-induced stereotypies in the rat (test B); assay type: in vivo, rats SPRAGUE-DAWLEY; conditions: for B-Potentialisation des stéréotypies induites par l'amphétamine (score global sur 3 heures): global score over 3 h, printed as treated/control
Experimental: B - Potentialisation des stéréotypies induites par l'amphétamine
Ce test est effectué sur des rats SPRAGUE-DAWLEY de souche OFA, provenant de l'élevage IFFA CREDO et d'un poids moyen de 150 + 10 g.
Le protocole mis en oeuvre est celui préconisé par SIMON et CHERMAT [J. Pharmacol. (Paris) 3 (2) 235-238 (1972)]%. Le produit étudié (ou le véhicule seul pour le lot témoin) est administré par voie intrapéritonéale à raison de 5 mg.kg^-1.
Les résultats expriment le score global sur 3 heures.

[3] = Estimated oral LD50 in the mouse; conditions: in vivo, estimate, read-out: Evaluation DL 50
Text: Dans ce tableau, on indique en outre une estimation de la DL 50 des composés par voie orale chez la souris.

[4] = system: ptosis réserpinique chez la souris; test: Antagonism of reserpine-induced ptosis in the mouse (test A); assay type: in vivo; conditions: 60 min before reserpine i.p., ptosis score (RUBIN) 3 h after reserpine, pair of scores given
Experimental: L'activité psychopharmacologique et spécialement l'activité antidépressive des composés de formule I (dans lesquels R représente l'hydrogène ou le radical méthyle) est illustrée par le résultat des tests suivants : • A - Antagonisme du ptosis réserpinique chez la souris Le produit étudié (ou le.véhicule seul - gomme arabique et eau 1/1 - pour le lot témoin) est administré par intubation oesophagienne à des souris de sexe mâle, de souche OF1 IFFA CREDO de poids moyen 22 + 1 g, puis 60 minutes après traitement, tous les animaux reçoivent par voie intrapéritonéale 1 mg.kg de Réserpine base.
Le composé de l'exemple 1 et la quipazine prise comme référence, ont été administrés à raison de 40 mg.kg^-1 et le composé de l'exemple 2 à raison de 10 mg.kg^-1.
L'appréciation du ptosis (oeil gauche) est donnée selon la cotation de RUBIN et Coll. [J. Pharmacol. Exp. Ther. 120, 125-136 (195717 3 heures après l'administration de Réserpine.

[5] = 5 mg.kg^-1 i.p., percent increase of global score over control
[6] = 40 mg.kg^-1 oral (oesophageal intubation)

| SMILES | C-Antagonisme du comportement muricide [1] | B-Potentialisation des stéréotypies induites par l'amphétamine (score global sur 3 heures) ([2]; 5 mg.kg^-1 i.p.) | B-Potentialisation des stéréotypies induites par l'amphétamine [2, 5] | LD50 [3] | A-Activité anti-réserpinique vis-à-vis du ptosis [4, 6] | B-Potentialisation des stéréotypies induites par l'amphétamine ([2]; even at 20 I P) | A-Activité anti-réserpinique vis-à-vis du ptosis ([4]; 10 mg.kg^-1 oral (oesophageal intubation)) |
| --- | --- | --- | --- | --- | --- | --- | --- |
| Cc1cc2occc2c(N2CCNCC2)n1 [EXEMPLE 1, 6-methyl-4-(l-piperazinyl)-furo [3,2-c] pyridine] | 90% | 118/95 | 24,2% | 250 mg/kg | 13 / 23 |  |  |
| c1ccc2nc(N3CCNCC3)ccc2c1 [QUIPAZINE, quipazine, reference compound] | 64,7% |  |  | 233 to 376 mg/kg | 14 / 23 | Inactif même à 20 I P |  |
| c1cc2occc2c(N2CCNCC2)n1 [EXEMPLE 2, 4-(l-piperazinyl)-furo [3,2-c] pyridine] | 74% | 129/114 | 13,2% | 200 mg/kg |  |  | 15 / 22 |
